In US9221872B2, “Peptides and peptidomimetics in combination uses and treatments for cancer patient subpopulations” (priority 2013, dated 2015):
Where a SMILES comes first, the peptide text is derived from it. Where no end group is shown, it is not given here. [ ]: non-standard residue; d: D form. dPhe(F5) = N[C@H](Cc1c(F)c(F)c(F)c(F)c1F)C(=O)O; dBpa = N[C@H](Cc1ccc(C(=O)c2ccccc2)cc1)C(=O)O; dCha = N[C@H](CC1CCCCC1)C(=O)O

Assays:
[1] = tested on: Jurkat cells; assay: G2 checkpoint abrogation, bleomycin treated Jurkat cells, flow cytometry; format: cell-based, human; conditions: for G2 checkpoint abrogating activity: bleomycin treated Jurkat cells
Experimental: Cell-Cycle Analysis The cell cycle status of the cells treated with bleomycin or adriamcin were analyzed by flow cytometry as described by Kawabe (1997) Nature 385:454-458. In brief, two million cells were re-suspended and incubated in 200 μl Krishan's solution (0.1% Sodium citrate, 50 μg/ml PI, 20 μg/ml RNase A and 0.5% NP-40) for 1 hr at 4° C. and analyzed by a flow cytometry, FACScan™ (Beckton Dickinson, Mountain View, Calif.) with the program CELLQuest™ (Beckton Dickinson).
Flow cytometry analysis of G2 checkpoint abrogation was performed using human leukemia derived Jurkat cell line. In brief, cultured cells were treated with various doses of peptide/peptidomimetic and 40 μg/ml bleomycine for 24 hr. The DNA of the cells was stained with propidium iodide and analyzed by flow cytometry.
(§1) The “Appearance of side effect when used alone” indicates the peptide/peptidomimetic dose that produced Jurkat cell cycle disturbance, i.e., the appearance of significant amounts of SubG1 cells (dead cells) or cells in which the DNA content of each varies more than usual. […] The “G2 abrogating dose” indicates the peptide/peptidomimetic dose with 40 μg/ml bleomycine that produced detectable G2 checkpoint abrogation activity following treatment for 24 hours. The “Appearance of side effect when used with colchicine” indicates the peptide/peptidomimetic dose with 5 μg/ml colchicine that produced Jurkat cell cycle disturbance following treatment for 24 hours.
(§2) A comparison between G2 checkpoint abrogating activity and non specific toxicity (M checkpoint abrogation) by CB501 was performed. In brief, Jurkat cells were treated with 40 μg/ml bleomycin or 0.5 μg/ml colchicine for G2 checkpoint abrogating activity and non specific toxicity, respectively. The DNA amount in each of the treated cells was analyzed by flow cytometry, as previously described.

[2] = tested on: CBP501-sensitive tumor cells; conditions: cited from earlier work
[3] = tested on: MIAPaCa2; assay: Sub-G1 (dead cell) analysis of MIAPaCa2 treated with bleomycin or adriamycin; format: cell-based, human; conditions: bleomycine 10 μg/ml or adriamycin 1 μg/ml, 3 hours, then 21 hours
Experimental: The G2 checkpoint abrogating activity of various compounds at different doses on human pancreatic cancer derived cell line MIAPaCa2 treated with bleomycine (Bleo) or adriamycin (ADR) was studied. Briefly, cells were incubated with the compounds and bleomycine (10 μg/ml) or adriamycin (1 μg/ml) for 3 hours. The medium was changed and incubated for an additional 21 hours. Harvested cells were stained for DNA by propium iodide and analyzed with flow cytometry as previously described. The % of the sub-G1 cell population is indicated as dead cells in FIG. 3.

[4] = tested on: HUVEC; assay: Growth of normal human umbilical endothelial cells; format: cell-based
Experimental: Similar studies were performed using normal human umbilical endothelial cells (HUVEC).

[5] = cited from earlier work
[6] = tested on: MIAPaCa2 human pancreatic carcinoma; assay: MIAPaCa2 subcutaneous tumor in scid mice; format: in vivo, mouse
Experimental: To study in vivo efficacy of the compounds, MIAPaCa2 human pancreatic carcinoma cells were implanted subcutaneously in scid mice. The treatment was initiated when the size of the primary tumor became 0.1 cm3 (Day0) or larger, e.g., 7 or 8 mm in diameter. CDDP (3 mg/kg) and CBP 501 (10 or 40 mg/kg) were intra-peritoneally administered alone or in combination. Tumor sizes were measured using calipers three times a week, and volumes were calculated using the formula: weight(mg)=[width (mm)2×length (mm)]/2. Mean tumor sizes for each treatment group are plotted (n=4) against the days after the start of treatment (FIG. 10).

[7] = tested on: HUVEC cells; assay: G2 checkpoint abrogation by CBP501 combined with cis-platin in various cell lines; format: cell-based, human; conditions: cis-platin 3 μg/ml, 3 hr, then 45 hr
Experimental: The medium was aspirated, fresh medium without these compounds was added and the cells were incubated for an additional 45 hr. The cells including floating cells were harvested using trypsin-EDTA solution, incubated with Krishan's solution and analyzed for DNA content by flow cytometry as previously described.

[8] = tested on: Jurkat cells; assay: M phase checkpoint abrogation / non specific toxicity, colchicine treated Jurkat cells; format: cell-based
Experimental: Flow cytometry analysis of M phase checkpoint abrogation by the compounds was performed using human T cell leukemia Jurkat cell line treated with colchicine (5 μg/ml or 0.5 μg/ml) and various doses of peptide/peptidomimetics for 24 hr (FIG. 12). The DNA of the cells was stained and analyzed by flow cytometry as described above.
as §1, §2

[9] = tested on: M1 and M2 macrophages; assay: Phagocytic activity of M1 and M2 macrophages, fluorescent beads; format: cell-based, human
Experimental: Referring to FIG. 19, macrophages were obtained by stimulating human peripheral blood mononuclear cells by 0.32 uM of PMA and removing all suspension cells 48 hours of PMA stimulation. The cells were further incubated with 50 ng/ml IFN-gamma, 10 ng/ml LPS to obtain M1 phenotype, and 20 ng/ml IL-4 to obtain M2 macrophages. Both treatment was with or without CBP501. The phagocytic activity was monitored by using fluorescent labelled beads and flow cytometry.

[10] = tested on: non-squamous NSCLC; assay: Phase II randomized study, cisplatin and pemetrexed with or without CBP501; format: in vivo, human; conditions: for Hazard Ratio OS: Arm A vs Arm B
Experimental: Clinical Study Design: Open-label, multicenter, phase II randomized, two-arm, comparative study. The protocol evaluated full-dose cisplatin and pemetrexed with or without CBP501. […] Randomization was stratified according to baseline stage of disease (IIIb vs IV), presence of brain metastasis and whether or not patients were eligible for bevacizumab therapy.
A cycle was considered to be 3 weeks (21 days).
3. Cisplatin 75 mg/m^2 was administered as a 1-hour i.v. infusion immediately after the pemetrexed infusion.
Cox proportional hazards model was employed to estimate the hazard ratio (HR) for PFS between the 2 treatment arms. The model included the treatment arm as a factor as well as the randomization stratification factors. The following covariates were explored: age, gender, race (Caucasian/non-Caucasian), prior surgery/procedure (yes/no), prior radiotherapy (yes/no), x-ray interpretation (normal/abnormal), ECG interpretation (normal/abnormal), bone scan (normal/abnormal), and time from diagnosis. Any continuous variables such as age and time from diagnosis to study treatment could have been converted into categorical variables by specifying 2 or several classes of values if a better model fit would result. The exploratory variables were entered using a stepwise regression algorithm using the following criteria: a variable must be significant at the 0.25 level to be entered into the model and significant at 0.15 level to remain in the model. For the final model, the point estimate of the hazard ratios were provided along with 95% CIs.
Subgroup analyses were conducted for patients that had […] at screening. Additional subgroup analysis was performed with a software GraphPad Prism 5 with raw data on each patients analyzed.

[11] = Mouse serum treatment analysis, residual CBP501 quantity by HPLC; format: in vitro ADME; conditions: mouse serum (table title), 37 degree
[12] = tested on: MIAPaCa2 human pancreatic carcinoma cells; assay: Colony formation analysis of MIAPaCa2 cells; conditions: CBP501 10 μM, cisplatin or oxaliplatin 1, 3 or 9 μg/ml, 3 hours, 10 days
Experimental: Briefly, cells were plated at 300 cells/well in 6 well plates, incubated overnight, and treated with the compounds for three hours. The medium was changed and cultured for an additional 10 days. Cells were subsequently fixed with 70% methanol, stained with 0.1% crystal violet and visualized.

(d-Arg)(d-Arg)(d-Arg)(d-Bpa)(d-Arg)(d-Arg)(d-Arg)(d-Phe-2,3,4,5,6-F)(d-Cha) ([dR][dR][dR][dBpa][dR][dR][dR][dPhe(F5)][dCha]) [CBP703]
G2 checkpoint abrogating activity [1]: retain G2 checkpoint abrogating activity comparable to other peptides having significant G2 checkpoint abrogating activity

(d-Arg)(d-Arg)(d-Arg)(d-Bpa)(d-Arg)(d-Trp)(d-Arg)(d-Phe-2,3,4,5,6-F)(d-Cha) ([dR][dR][dR][dBpa][dR][dW][dR][dPhe(F5)][dCha]) [CBP701]
G2 checkpoint abrogating activity [1]: retain G2 checkpoint abrogating activity comparable to other peptides having significant G2 checkpoint abrogating activity

N=C(N)NCCC[C@@H](NC(=O)[C@@H](CCCNC(=N)N)NC(=O)[C@@H](CCC(N)=O)NC(=O)[C@@H](CCCNC(=N)N)NC(=O)[C@@H](CCCNC(=N)N)NC(=O)[C@@H](CCCNC(=N)N)NC(=O)[C@@H](CC1CCCCC1)NC(=O)[C@@H](Cc1c(F)c(F)c(F)c(F)c1F)NC(=O)[C@@H](CO)NC(=O)[C@@H](Cc1c[nH]c2ccccc12)NC(=O)[C@@H](CO)NC(=O)[C@H](N)Cc1ccc(C(=O)c2ccccc2)cc1)C(=O)O [CBP501, (d-Bpa)(d-Ser)(d-Trp)(d-Ser)(d-Phe-2,3,4,5,6-F)(d-Cha)(d-Arg)(d-Arg)(d-Arg)(d-Gln)(d-Arg)(d-Arg)] (H-[dBpa][dS][dW][dS][dPhe(F5)][dCha][dR][dR][dR][dQ][dR][dR]-OH; N-terminus and C-terminus assumed)
Platinum concentration and platinum-DNA adduct formation [2]: increase platinum concentration and platinum-DNA adduct formation | Sensitization to DNA damaging agents (% sub-G1 cells) [3]: sensitized MIAPaCa2 cells to both bleomycin and adriamycin in a dose dependent manner | Effect on growth of normal cells [4]: does not affect the growth of HUVEC cells | Dose limiting allergic reactions (grade 3) ([5]; CBP501 36.4 mg/m^2 and cisplatin 75 mg/m^2): two out of six patients experienced allergic reactions | MTD in patients ([5]; in combination with cisplatin 75 mg/m^2, once every 21 days): 24.3 mg/m^2 | Tumor growth, treatment alone ([6]; CBP501 10 or 40 mg/kg intra-peritoneally): suppresses the growth of human pancreatic cancer cell in vivo | Tumor growth, combination with cisplatin ([6]; CDDP 3 mg/kg and CBP501 10 or 40 mg/kg intra-peritoneally): increased the anti-tumor activity of cisplatin | Dose up to which HUVEC cells were not sensitized to cisplatin [7]: > 50 µM | Effect on M phase cell cycle arrest induced by colchicine [8]: does not affect M phase cell cycle arrest and/or non specific toxicity induced by colchicine | Dose up to which non specific toxicity (M checkpoint abrogation) was absent ([8]; 0.5 μg/ml colchicine): > 50 µM | Phagocytosis of macrophages in vitro [9]: inhibited phagocytosis of both M1 and M2 macrophages | G2 checkpoint abrogating activity [1]: abrogated in a dose dependent manner | Hazard Ratio OS ([10]; ALL treated, exploring other covariates): 0.77 | Hazard Ratio OS ([10]; ALL treated, without exploring other covariates): 0.96 | Hazard Ratio OS ([10]; WBC <10000/μL at screening, exploring other covariates): 0.69 | Hazard Ratio OS ([10]; WBC <10000/μL at screening, without exploring other covariates): 0.80 | Survival benefit from addition to pemetrexed plus cisplatin ([10]; all treated population): no statistically significant survival benefit | Survival benefit from addition to pemetrexed plus cisplatin ([10]; sub-group with normal or low WBC at screening): provided a benefit | Residual peptide after 1 hr serum treatment [11]: >90% | Effect on cyto-toxic activity of platinum drugs, colony formation [12]: enhanced the cyto-toxic activity of both cisplatin and oxaliplatin

(d-Arg)(d-Arg)(d-Bpa)(d-Arg)(d-Arg)(d-Arg)(d-Phe-2,3,4,5,6-F)(d-Cha) ([dR][dR][dBpa][dR][dR][dR][dPhe(F5)][dCha]) [CBP700]
G2 checkpoint abrogating activity [1]: retain G2 checkpoint abrogating activity comparable to other peptides having significant G2 checkpoint abrogating activity

(d-Arg)(d-Arg)(d-Arg)(d-Arg)(d-Bpa)(d-Arg)(d-Trp)(d-Arg)(d-Phe-2,3,4,5,6-F)(d-Cha) ([dR][dR][dR][dR][dBpa][dR][dW][dR][dPhe(F5)][dCha]) [CBP702]
G2 checkpoint abrogating activity [1]: retain G2 checkpoint abrogating activity comparable to other peptides having significant G2 checkpoint abrogating activity

N=C(N)NCCC[C@H](NC(=O)CNC(=O)[C@@H](N)Cc1ccc(O)cc1)C(=O)N[C@@H](CCCCN)C(=O)N[C@@H](CCCCN)C(=O)N[C@@H](CCCNC(=N)N)C(=O)N[C@@H](CCCNC(=N)N)C(=O)N[C@@H](CCC(N)=O)C(=O)N[C@@H](CCCNC(=N)N)C(=O)N[C@@H](CCCNC(=N)N)C(=O)N[C@@H](CCCNC(=N)N)C(=O)N[C@@H](CC1CCCCC1)C(=O)N[C@@H](Cc1c(F)c(F)c(F)c(F)c1F)C(=O)N[C@@H](CCCNC(=N)N)C(=O)N[C@@H](CO)C(=O)N1CCC[C@H]1C(=O)N[C@@H](CO)C(=O)N[C@@H](Cc1ccc(O)cc1)C(=O)N[C@@H](Cc1ccc(O)cc1)C(=O)O [CBP413, (l-Tyr)(l-Gly)(l-Arg)(l-Lys)(l-Lys)(l-Arg)(l-Arg)(l-Gln)(l-Arg)(l-Arg)(l-Arg)(l-Cha)(l-Phe-2,3,4,5,6-F)(l-Arg)(l-Ser)(l-Pro)(l-Ser)(l-Tyr)(l-Tyr)]
G2 abrogating dose ([1]; with 40 μg/ml bleomycine, 24 hours): ≧1.56 μM
